Entries after “also recorded” stand apart in the source; their conditions may differ.
What was measured:
[1] = tested on: hypoxic cells; settings: Wilson et al., 1992; cited from earlier work
[2] = tested on: EMT6 mouse mammary carcinoma cells
[3] = tested on: CaNT murine adenocarcinoma; design: species or system CBA/Gy fTO mice; settings: mouse
[4] = In vitro metabolism by rat liver microsomes under hypoxic or oxic conditions

SMILES | ability to diffuse into the extravascular compartment of tumors [1] | selectivity for hypoxic cells [1] | in vivo toxicity | effect of hypoxia and lowered pH on cytotoxicity [2] | effect of lowered extracellular pH on activity [2] | toxicity with reducing enzymes under hypoxia [2] | potentiation of in vivo cytotoxicity by hydralazine [3] | activity compared to radiation, with concomitant hydralazine ([3]; in vivo) | dependence of rate of metabolism on amount of cyt P450 ([4]; hypoxia, NADPH 1 mM, microsomes 2.0-5.2 nmol cyt P450/ml) | metabolism ([4]; in air or in the presence of boiled microsomes) | metabolism with NADPH ([4]; in the presence of NADPH, microsomes, hypoxia) | major enzyme responsible for activation ([4]; microsomal bioreductive activation) | effect of CO on reductive metabolism ([4]; microsomes 2.9 nmol cyt P450/ml, NADPH 1 mM, hypoxia) | metabolism ([4]; microsomes and cofactors NADH or NADPH, under hypoxia) | conditions required for conversion to an activated alkylating species ([4]; rat liver microsomes, cofactors, inhibitors)
C[N+](C)([O-])CCCNc1c2ccccc2nc2cccc([N+](=O)[O-])c12 [SN 24030] | improved ability to diffuse into the extravascular compartment of tumors | approximately 1500 fold | – | – | – | – | – | – | – | – | – | – | – | – | –
O=C(O)CCCc1ccc(N(CCCl)OCCCl)cc1 [CHL-HD, 4-[p-(N-2-chloroethoxy N-2-chloroethylamino)phenyl] butanoic acid] | – | – | minimal in vivo toxicity | both hypoxia and lowered pH in the presence of reducing enzymes potentiate to cytotoxicity | enhance when the extracellular pH is lowered below the physiological 7.4 | greater toxicity with reducing enzymes under hypoxia | potentiated by the administration of hydralazine 5 min prior or 30 post; also recorded: potentiated by hydralazine | enhanced activity as compared to radiation | there is a relationship between the amount of cyt P450 in the metabolic reaction mixture and the rate of metabolism | very little if any metabolism | metabolism occurs more readily at lower concentrations of cofactor | appears to be cyt P450 | CO inhibits the ability of microsomes to metabolize CHL-HD | is metabolized | reducing enzymes, co-factors and hypoxia were needed to activate CHL-HD to an alkylating species; also recorded: requires hypoxia and reducing enzymes and cofactors
